Reference: US20220315554A1, “COMPOUNDS COMPRISING A […] LIGAND AND USE THEREOF” (priority 2019, published 2022)
Numbered stars: 1 amine (or outer) side, 2 acyl side, 3 side chain; on linkers, the order of the positions; unused ones are H or OH. Bridge positions count the residues as written; N and C are the ends. Square brackets hold non-standard residues; d marks the D form. Peptide text beside a SMILES is read from it. * marks the point of attachment. ξ: configuration not given here. mXylylene = c1cc(C[*:1])cc(C[*:2])c1; αMeF = C[C@](N)(Cc1ccccc1)C(=O)O; Hexanoyl = CCCCCC(=O)*; ξM = CSCCC(N)C(=O)O

What was measured:
[1] = Plasma stability assay, mouse plasma; type: in vitro ADME; conditions: 4 h incubation, 37° C., read-out: % intact compound remaining after incubation, Mouse plasma
[2] = molecular target: T1, FAP-expressing human WI-38 fibroblasts (Homo sapiens, UniProt Q12884); assay: Competitive FACS binding assay; conditions: pIC50 Category (FACS), competition with 3 nM Cy5-labeled compound, WI-38 fibroblasts, 4° C., 1 hour
T1 construct: FAP-expressing human WI-38 fibroblasts (ECACC) were cultured in EMEM; host or cells: WI-38 human fibroblasts
T1 sequence (Q12884 1-760): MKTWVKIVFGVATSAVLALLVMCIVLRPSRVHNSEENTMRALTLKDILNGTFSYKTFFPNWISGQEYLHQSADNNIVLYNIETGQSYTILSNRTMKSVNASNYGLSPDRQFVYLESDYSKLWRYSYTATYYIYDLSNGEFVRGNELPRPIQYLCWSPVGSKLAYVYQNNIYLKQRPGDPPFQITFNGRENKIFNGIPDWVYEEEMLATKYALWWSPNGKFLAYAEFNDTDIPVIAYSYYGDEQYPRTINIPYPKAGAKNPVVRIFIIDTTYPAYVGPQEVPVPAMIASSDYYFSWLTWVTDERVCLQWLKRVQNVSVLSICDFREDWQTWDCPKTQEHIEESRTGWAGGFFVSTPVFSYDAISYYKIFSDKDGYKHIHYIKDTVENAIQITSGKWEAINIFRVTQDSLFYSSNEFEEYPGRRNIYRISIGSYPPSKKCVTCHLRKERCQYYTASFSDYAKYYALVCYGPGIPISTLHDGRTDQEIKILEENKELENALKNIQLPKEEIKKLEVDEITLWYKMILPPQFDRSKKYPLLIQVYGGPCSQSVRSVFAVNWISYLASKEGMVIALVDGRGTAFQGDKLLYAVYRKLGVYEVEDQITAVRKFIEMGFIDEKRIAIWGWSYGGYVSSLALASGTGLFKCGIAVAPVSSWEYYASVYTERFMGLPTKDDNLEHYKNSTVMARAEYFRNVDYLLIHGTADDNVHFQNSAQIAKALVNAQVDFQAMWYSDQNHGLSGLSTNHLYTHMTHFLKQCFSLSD
Experimental: Cells were analyzed in an Attune NxT flow cytometer. […]

Human recombinant FAP [3] = molecular target: T2, Human recombinant FAP (Homo sapiens, UniProt Q12884); assay: Surface plasmon resonance (Biacore) assay; type: binding
T2 sequence (Q12884 1-760): T1 sequence (Q12884 1-760)

Human recombinant FAP [4] = molecular target: T2, Human recombinant FAP; assay: FRET-based FAP protease activity assay; type: biochemical; set-up: purchased R&D systems 3715-SE; conditions: pIC50 Category (Activity), recombinant human FAP, FRET substrate, 37° C.

| SMILES | remaining at 4 h, 9.8 µM [1] | IC50 [2] | Kd (Human recombinant FAP [3]) | IC50 (Human recombinant FAP [4]) |
| --- | --- | --- | --- | --- |
| CSCC[C@H](NC(C)=O)C(=O)N[C@H]1CSCc2cccc(c2)CSC[C@@H](C(=O)N[C@@H](CC(=O)O)C(=O)N[C@@H](Cc2c[nH]cn2)C(=O)N[C@@H](Cc2ccccc2)C(=O)N[C@@H](CCCNC(=N)N)C(=O)N[C@@H](CC(=O)O)C(N)=O)NC(=O)[C@H](Cc2ccccc2)NC(=O)[C@H](CCC(=O)O)NC(=O)[C@H]([C@@H](C)O)NC(=O)[C@@H]2CCCN2C(=O)[C@@H]2CCCN2C1=O [3BP-2975, Ac-Met-[Cys(3MeBn)-Pro-Pro-Thr-Glu-Phe-Cys]-Asp-His-Phe-Arg-Asp-NH2] (Ac-MCPPTEFCDHFRD-NH2; linker 2-8 via mXylylene) | 100% | < 10 nM | < 10 nM | < 10 nM |
| CSCC[C@H](NC(C)=O)C(=O)N[C@H]1CSCc2cccc(c2)CSC[C@@H](C(=O)N[C@@H](CC(=O)O)C(=O)N[C@@H](Cc2c[nH]cn2)C(=O)N[C@H](Cc2ccccc2)C(=O)N[C@@H](CCCNC(=N)N)C(=O)N[C@@H](CC(=O)O)C(N)=O)NC(=O)[C@H](Cc2ccccc2)NC(=O)[C@H](CCC(=O)O)NC(=O)[C@H]([C@@H](C)O)NC(=O)[C@@H]2CCCN2C(=O)[C@@H]2CCCN2C1=O [3BP-3211, Ac-Met-[Cys(3MeBn)-Pro-Pro-Thr-Glu-Phe-Cys]-Asp-His-phe-Arg-Asp-NH2] (Ac-MCPPTEFCDH[dF]RD-NH2; linker 2-8 via mXylylene) | 85% | < 10 nM |  | < 10 nM |
| CSCCC(N)C(=O)N[C@H]1CSCc2cccc(c2)CSC[C@@H](C(=O)N[C@@H](CC(=O)O)C(=O)N[C@@H](Cc2c[nH]cn2)C(=O)N[C@@H](Cc2ccccc2)C(=O)N[C@@H](CCCNC(=N)N)C(=O)N[C@@H](CC(=O)O)C(N)=O)NC(=O)[C@H](Cc2ccccc2)NC(=O)[C@H](CCC(=O)O)NC(=O)[C@H]([C@@H](C)O)NC(=O)[C@@H]2CCCN2C(=O)[C@@H]2CCCN2C1=O (stereo partly drawn) [3BP-2976, H-met-[Cys(3MeBn)-Pro-Pro-Thr-Glu-Phe-Cys]-Asp-His-Phe-Arg-Asp-NH2] (H-[ξM]CPPTEFCDHFRD-NH2; linker 2-8 via mXylylene) | 93% | < 10 nM |  | < 10 nM |
| CCCCCC(=O)N[C@H]1CSCc2cccc(c2)CSC[C@@H](C(=O)N[C@@H](CC(=O)O)C(=O)N[C@@H](Cc2c[nH]cn2)C(=O)N[C@@H](Cc2ccccc2)C(=O)N[C@@H](CCCNC(=N)N)C(=O)N[C@@H](CC(=O)O)C(N)=O)NC(=O)[C@H](Cc2ccccc2)NC(=O)[C@H](CCC(=O)O)NC(=O)[C@H]([C@@H](C)O)NC(=O)[C@@H]2CCCN2C(=O)[C@@H]2CCCN2C1=O [3BP-2974, Hex-[Cys(3MeBn)-Pro-Pro-Thr-Glu-Phe-Cys]-Asp-His-Phe-Arg-Asp-NH2] (Hexanoyl-CPPTEFCDHFRD-NH2; linker 1-7 via mXylylene) | 92% | < 10 nM | < 10 nM | < 10 nM |
| CSCC[C@H](NC(C)=O)C(=O)N[C@H]1CSCc2cccc(c2)CSC[C@@H](C(=O)N[C@@H](CC(=O)O)C(=O)N[C@@H](Cc2c[nH]cn2)C(=O)N[C@@H](Cc2ccccc2)C(=O)N[C@H](CCCNC(=N)N)C(=O)N[C@@H](CC(=O)O)C(N)=O)NC(=O)[C@H](Cc2ccccc2)NC(=O)[C@H](CCC(=O)O)NC(=O)[C@H]([C@@H](C)O)NC(=O)[C@@H]2CCCN2C(=O)[C@@H]2CCCN2C1=O [3BP-3212, Ac-Met-[Cys(3MeBn)-Pro-Pro-Thr-Glu-Phe-Cys]-Asp-His-Phe-arg-Asp-NH2] (Ac-MCPPTEFCDHF[dR]D-NH2; linker 2-8 via mXylylene) | 80% | < 10 nM |  | < 10 nM |
| CSCC[C@H](NC(C)=O)C(=O)N[C@H]1CSCc2cccc(c2)CSC[C@@H](C(=O)N[C@@H](CC(=O)O)C(=O)N[C@@H](Cc2c[nH]cn2)C(=O)N[C@@](C)(Cc2ccccc2)C(=O)N[C@@H](CCCNC(=N)N)C(=O)N[C@@H](CC(=O)O)C(N)=O)NC(=O)[C@H](Cc2ccccc2)NC(=O)[C@H](CCC(=O)O)NC(=O)[C@H]([C@@H](C)O)NC(=O)[C@@H]2CCCN2C(=O)[C@@H]2CCCN2C1=O [3BP-3203, Ac-Met-[Cys(3MeBn)-Pro-Pro-Thr-Glu-Phe-Cys]-Asp-His-Amf-Arg-Asp-NH2] (Ac-MCPPTEFCDH[αMeF]RD-NH2; linker 2-8 via mXylylene) | 100% | < 10 nM |  | < 10 nM |
| CSCC[C@H](NC(C)=O)C(=O)N[C@H]1CSCc2cccc(c2)CSC[C@@H](C(=O)N[C@@H](CC(=O)O)C(=O)N[C@@H](Cc2c[nH]cn2)C(=O)N2Cc3ccccc3C[C@H]2C(=O)N[C@@H](CCCNC(=N)N)C(=O)N[C@@H](CC(=O)O)C(N)=O)NC(=O)[C@H](Cc2ccccc2)NC(=O)[C@H](CCC(=O)O)NC(=O)[C@H]2NC(=O)[C@@H]3C(CCN3C(=O)[C@@H]3CCCN3C1=O)[C@H]2O [3BP-3189, Ac-Met-[Cys(3MeBn)-Pro-Pro-Thr-Glu-Phe-Cys]-Asp-His-Tic-Arg-Asp-NH2] | 100% | < 10 nM |  | < 10 nM |
| CSCC[C@H](NC(C)=O)C(=O)N[C@H]1CSCc2cccc(c2)CSC[C@@H](C(=O)N[C@@H](CC(=O)O)C(=O)N[C@H](Cc2c[nH]cn2)C(=O)N[C@@H](Cc2ccccc2)C(=O)N[C@@H](CCCNC(=N)N)C(=O)N[C@@H](CC(=O)O)C(N)=O)NC(=O)[C@H](Cc2ccccc2)NC(=O)[C@H](CCC(=O)O)NC(=O)[C@H]([C@@H](C)O)NC(=O)[C@@H]2CCCN2C(=O)[C@@H]2CCCN2C1=O [3BP-3210, Ac-Met-[Cys(3MeBn)-Pro-Pro-Thr-Glu-Phe-Cys]-Asp-his-Phe-Arg-Asp-NH2] (Ac-MCPPTEFCD[dH]FRD-NH2; linker 2-8 via mXylylene) | 100% | < 10 nM |  | < 10 nM |
| CC(=O)N[C@H]1CSCc2cccc(c2)CSC[C@@H](C(=O)N[C@@H](CC(=O)O)C(=O)N[C@@H](Cc2c[nH]cn2)C(=O)N[C@@H](Cc2ccccc2)C(=O)N[C@@H](CCCNC(=N)N)C(=O)N[C@@H](CC(=O)O)C(N)=O)NC(=O)[C@H](Cc2ccccc2)NC(=O)[C@H](CCC(=O)O)NC(=O)[C@H]([C@@H](C)O)NC(=O)[C@@H]2CCCN2C(=O)[C@@H]2CCCN2C1=O [3BP-3202, Ac-[Cys(3MeBn)-Pro-Pro-Thr-Glu-Phe-Cys]-Asp-His-Phe-Arg-Asp-NH2] (Ac-CPPTEFCDHFRD-NH2; linker 1-7 via mXylylene) | 78% | < 10 nM | < 10 nM | < 10 nM |
| CSCC[C@H](NC(C)=O)C(=O)N[C@H]1CSCc2cccc(c2)CSC[C@@H](C(=O)N[C@H](CC(=O)O)C(=O)N[C@@H](Cc2c[nH]cn2)C(=O)N[C@@H](Cc2ccccc2)C(=O)N[C@@H](CCCNC(=N)N)C(=O)N[C@@H](CC(=O)O)C(N)=O)NC(=O)[C@H](Cc2ccccc2)NC(=O)[C@H](CCC(=O)O)NC(=O)[C@H]([C@@H](C)O)NC(=O)[C@@H]2CCCN2C(=O)[C@@H]2CCCN2C1=O [3BP-3183, Ac-Met-[Cys(3MeBn)-Pro-Pro-Thr-Glu-Phe-Cys]-asp-His-Phe-Arg-Asp-NH2] (Ac-MCPPTEFC[dD]HFRD-NH2; linker 2-8 via mXylylene) | 98% | 10 to 79.4 nM |  | 10 to 79.4 nM |
| CSCC[C@H](NC(C)=O)C(=O)N[C@H]1CSCc2cccc(c2)CSC[C@@H](C(=O)N[C@@H](CC(=O)O)C(=O)N[C@@H](Cc2c[nH]cn2)C(=O)N[C@@H](Cc2ccccc2)C(=O)N[C@@H](CCCNC(=N)N)C(=O)N[C@@H](CC(=O)O)C(N)=O)NC(=O)[C@H](Cc2ccccc2)NC(=O)[C@H](CCC(=O)O)NC(=O)[C@H]([C@@H](C)O)NC(=O)[C@H]2CCCN2C(=O)[C@@H]2CCCN2C1=O [3BP-3177, Ac-Met-[Cys(3MeBn)-Pro-pro-Thr-Glu-Phe-Cys]-Asp-His-Phe-Arg-Asp-NH2] (Ac-MCP[dP]TEFCDHFRD-NH2; linker 2-8 via mXylylene) | 79% | 10 to 79.4 nM |  | 10 to 79.4 nM |
